The record followed here is US20020071842A1, “Soluble CD1 compositions and uses thereof” (priority 2000, published 2002).

What all share (assay): Plate-bound mCD1d fusion protein hybridoma stimulation assay (IL-2 ELISA)
What all share (assay type): cell-based, mouse
For orientation: An ELISA detects its analyte on a solid surface through an enzyme-linked reagent.

One assay has as its system 24.8.A hybridoma. Conditions: for IL-2 secretion: 24.8 A NKT hybridoma, plate-bound mCD1d-IgGFc2a fusion protein preincubated with lipid antigen. The source says: (§1) The CD1d-restricted T cell clones 24.7, 24.8, 24.9 (NKT cell) and 14S.6, 14S.7, 14S.10, and 14S.15 (diverse TCRs) were all derived from spleen of wild type C57BL/6 mice, as described previously (Behar, S. M. et al., J. Immunol., 162:161-7 (1999)). To generate T cell hybridomas, the activated T cells were fused to the aminopterin-sensitive BW5147 αβTCR^− thymoma cell line using PEG1500, and hybrids were selected in HAT medium (Life Technologies, Gaithersburg, Md.). Resulting TT hybridomas were tested for recognition of RMA-S cells transfected with mCD1D1 compared to untransfected RMA-S cells, as described below. […] The hybridomas are distinguished from the original T cell clones by the addition of a letter to their names. The KT/7, KT/12, KT/22, and KT/23 and Vβ/9 NKT cell hybridomas were derived from NK1.1^+ T cells enriched from spleen of C57BL/6 mice by depletion of CD8+ T cells, naive T cells, and B cells by mAbs (anti-B220, CD8, and CD62L, or anti-CD8α, CD8β, and Me114) bound to magnetic microbeads, or to plastic. The purified cells were stimulated either by the anti-CD3 KT3 mAb (KT/7, KT/12, KT/22, KT/23), or by an anti-Vβ8.2 mAb (Vβ/9), and addition of IL-2 or IL-2 and IL-7. After 4-5 days of culture the cells were fused with BW5147 thymoma cells. The VII68, VIII24, XVI9, and XV104 diverse TCR hybridomas were generated from CD4^+ T cells from class 110 mice, as described previously (Cardell, S. et al., J. Exp. Med., 182:993-1004 (1995)). The DN32D3 hybridoma was derived as described (Lantz, O., and Bendelac, A., J. Exp. Med., 180:1097-106 (1994).
(§2) To test for recognition of the mCD1d fusion protein and purified or synthetic antigens, 96 well protein A coated plates (Pierce Chemical Company) were incubated with 400-600 ng/well of the fusion protein or a negative control IgG2a antibody, RPC5.4 or UPC10, in PBS, at pH 7.2. Lipid antigens were diluted into PBS and added where specified at the indicated molar ratio of antigen to fusion protein, (when not specified the ratio was 40:1). Protein A plates containing the fusion protein and antigen were incubated 24-48 hr at 37° C., then washed three times with 200 μl/well sterile PBS, pH 7.2, and two times with 200 μl/well sterile culture medium (containing RPMI supplemented with L-glutamine and penicillin/streptomycin, Life Technologies, Gaithersburg, Md., and 10% bovine calf serum, Hyclone Laboratories, Logan, Utah). For assays in which the PI was phospholipase treated, it was first diluted into 0.01M Tris, 0.15M NaCl, pH 7.5, containing 0.25 U PI-specific phospholipase C or 0.5 U phospholipase D (Sigma, St Louis, Mo.), and incubated 30 minutes at room temperature, then added to the protein A plates as described above. For assays in which the pH was varied during antigen incubation with the fusion protein, the fusion protein and α-GalCer were diluted into a 20 mM citrate/phosphate buffer of the specified pH, which contained 0.15 M NaCl, and after incubation, the samples were neutralized by addition of 1M Tris, pH 7.5. Hybridoma cells were added to fusion protein/antigen treated plates at a concentration of 1×10^5 cells/well, in a total volume of 150 μl/well. Assays were performed using 2-6 replicate wells. In some assays, an anti-mCD1d blocking antibody (19G11) was included at a final concentration of 20 μg/ml. The plates were incubated at 37° C. for 16-20 hr, and culture supernatants were withdrawn for analysis. Each experiment was performed at least three times.
IL-2 secreted in the hybridoma stimulation assays was quantitated in a double antibody sandwich ELISA, by comparison to a standard curve of purified murine IL-2 (Pharmingen, San Diego, Calif.). Hybridoma plate stimulation supernatants (used either neat or diluted) and serially diluted IL-2 standards were added to 96 well ELISA plates coated with a rat anti-mouse IL-2 capture antibody (Pharmingen).

The test system of the next assay is 14S.10.C hybridoma. Conditions: 14S.10 C diverse TCR hybridoma; plate-bound mCD1d-IgGFc2a fusion protein preincubated with lipid antigen.
Description: as §1, §2
(§3) IL-2 secreted in the hybridoma stimulation assays was quantitated in a double antibody sandwich ELISA, by comparison to a standard curve of purified murine IL-2 (Pharmingen, San Diego, Calif.). Hybridoma plate stimulation supernatants (used either neat or diluted) and serially diluted IL-2 standards were added to 96 well ELISA plates coated with a rat anti-mouse IL-2 capture antibody (Pharmingen). […]

The next assay concerns 14S.15.A hybridoma. The settings on record: 14S.15.A diverse TCR hybridoma; plate-bound mCD1d-IgGFc2a fusion protein preincubated with lipid antigen.
Description: as §1, §2, §3

For a further assay, the system named is 14S.6.A hybridoma. The settings on record: 14S.6.A diverse TCR hybridoma; plate-bound mCD1d-IgGFc2a fusion protein preincubated with lipid antigen.
Description: as §1, §2, §3

The subject of a further assay is 14S.7.N hybridoma. The settings on record: 14S.7.N diverse TCR hybridoma; plate-bound mCD1d-IgGFc2a fusion protein preincubated with lipid antigen.
Description: as §1, §2, §3

A further assay relates to 24.7.C hybridoma. The settings on record: 24 7.C NKT hybridoma; plate-bound mCD1d-IgGFc2a fusion protein preincubated with lipid antigen.
Description: as §1, §2, §3

The subject of another assay is 24.9.E hybridoma. The settings on record: 24.9 E NKT hybridoma; plate-bound mCD1d-IgGFc2a fusion protein preincubated with lipid antigen.
Description: as §1, §2, §3

The subject of the next assay is DN32D3 hybridoma. Conditions: DN32D3 NKT hybridoma; plate-bound mCD1d-IgGFc2a fusion protein preincubated with lipid antigen.
Description: as §1, §2, §3

The next assay relates to KT/12 hybridoma. Conditions: KT/12 NKT hybridoma; plate-bound mCD1d-IgGFc2a fusion protein preincubated with lipid antigen.
Description: as §1, §2, §3

The subject of the next assay is KT/22 hybridoma. Conditions: KT/22 NKT hybridoma; plate-bound mCD1d-IgGFc2a fusion protein preincubated with lipid antigen.
Description: as §1, §2, §3

A further assay concerns KT/23 hybridoma. The settings on record: KT/23 NKT hybridoma; plate-bound mCD1d-IgGFc2a fusion protein preincubated with lipid antigen.
Description: as §1, §2, §3

Another assay has as its system KT/7 hybridoma. Conditions: KT/7 NKT hybridoma; plate-bound mCD1d-IgGFc2a fusion protein preincubated with lipid antigen.
Description: as §1, §2, §3

The subject of another assay is VII68 hybridoma. Conditions: VII68 diverse TCR hybridoma; plate-bound mCD1d-IgGFc2a fusion protein preincubated with lipid antigen.
Description: as §1, §2, §3

In a further assay the test system is VIII24 hybridoma. The settings on record: VIII24 diverse TCR hybridoma; plate-bound mCD1d-IgGFc2a fusion protein preincubated with lipid antigen.
Description: as §1, §2, §3

Another assay relates to Vβ/9 hybridoma. Conditions: Vβ/9 NKT hybridoma; plate-bound mCD1d-IgGFc2a fusion protein preincubated with lipid antigen.
Description: as §1, §2, §3

The test system of the next assay is XV104 hybridoma. Conditions: XV104 diverse TCR hybridoma; plate-bound mCD1d-IgGFc2a fusion protein preincubated with lipid antigen.
Description: as §1, §2, §3

For another assay, the system named is XV19 hybridoma. The settings on record: XV19 diverse TCR hybridoma; plate-bound mCD1d-IgGFc2a fusion protein preincubated with lipid antigen.
Description: as §1, §2, §3

For disialoganglioside [GD1a], the IL-2 secretion in the assay on 24.8.A hybridoma, with 14S.10.C hybridoma, with 14S.15.A hybridoma, in the assay on 14S.6.A hybridoma, in the assay on 14S.7.N hybridoma and in the assay on 24.7.C hybridoma was 0 (A “0” indicates a mean of less than 50 pg/ml IL-2 was secreted) each time. Besides, the IL-2 secretion with 24.9.E hybridoma, in the assay on DN32D3 hybridoma, in the assay on KT/12 hybridoma, in the assay with KT/22 hybridoma, with KT/23 hybridoma and in the assay with KT/7 hybridoma was 0 (A “0” indicates a mean of less than 50 pg/ml IL-2 was secreted) in each case. Also, the IL-2 secretion with VII68 hybridoma, in the assay on VIII24 hybridoma, with Vβ/9 hybridoma, with XV104 hybridoma and with XV19 hybridoma was 0 (A “0” indicates a mean of less than 50 pg/ml IL-2 was secreted) in each case.
As to phosphatidylglycerol [PG], the “IL-2 response to mCD1d fusion protein pre-treated with purified or synthetic lipid” value in the assay on 24.8.A hybridoma (24.8.A hybridoma, compared to untreated or buffer treated fusion protein) is on record as “dose dependent responses”. The IL-2 secretion result in the assay with 24.8.A hybridoma is “++ (“++” indicates 250-1000 pg/ml)”; in the assay on 14S.15.A hybridoma it was “+ (“+” indicates 50-250 pg/ml)”; with 14S.6.A hybridoma, “+ (“+” indicates 50-250 pg/ml)”; in the assay with 14S.7.N hybridoma, “+ (“+” indicates 50-250 pg/ml)”; in the assay with 24.7.C hybridoma, 0 (A “0” indicates a mean of less than 50 pg/ml IL-2 was secreted); with 24.9.E hybridoma, “+ (“+” indicates 50-250 pg/ml)”. Besides, the IL-2 secretion in the assay on DN32D3 hybridoma, with KT/12 hybridoma, with KT/22 hybridoma, in the assay on KT/23 hybridoma, in the assay on KT/7 hybridoma and in the assay on VII68 hybridoma was 0 (A “0” indicates a mean of less than 50 pg/ml IL-2 was secreted) throughout. Also, the IL-2 secretion with VIII24 hybridoma, with Vβ/9 hybridoma, in the assay on XV104 hybridoma and with XV19 hybridoma was 0 (A “0” indicates a mean of less than 50 pg/ml IL-2 was secreted) throughout.
As to monogalactosyl diglyceride [MGDG], the IL-2 secretion entry in the assay with 24.8.A hybridoma is on record as “+ (“+” indicates 50-250 pg/ml)”; with 14S.15.A hybridoma, 0 (A “0” indicates a mean of less than 50 pg/ml IL-2 was secreted); in the assay on 14S.6.A hybridoma, 0 (A “0” indicates a mean of less than 50 pg/ml IL-2 was secreted); in the assay on 14S.7.N hybridoma, 0 (A “0” indicates a mean of less than 50 pg/ml IL-2 was secreted); in the assay with 24.7.C hybridoma, 0 (A “0” indicates a mean of less than 50 pg/ml IL-2 was secreted); in the assay on 24.9.E hybridoma, 0 (A “0” indicates a mean of less than 50 pg/ml IL-2 was secreted). In addition, the IL-2 secretion in the assay with DN32D3 hybridoma, in the assay with KT/12 hybridoma, in the assay on KT/22 hybridoma, in the assay on KT/23 hybridoma, in the assay with KT/7 hybridoma and in the assay on VII68 hybridoma was 0 (A “0” indicates a mean of less than 50 pg/ml IL-2 was secreted) in each case. Further, the IL-2 secretion in the assay on VIII24 hybridoma, in the assay on Vβ/9 hybridoma, in the assay with XV104 hybridoma and in the assay on XV19 hybridoma was 0 (A “0” indicates a mean of less than 50 pg/ml IL-2 was secreted) in each case.
